Experimental data as given in ChEMBL document CHEMBL4340502, “Anti-biofilm and anti-adherence properties of novel cyclic dipeptides against oral pathogens” (Bioorg Med Chem, 2019).
The source made the active and inactive calls. How the calls were made is not given here.

Columns and labels:
Porphyromonas gingivalis = experiment: Antibiofilm activity against Porphyromonas gingivalis ATCC 33277 assessed as inhibition of biofilm formation up to 96 ug/mL after 24 hrs by crystal violet staining based assay; format: functional, organism-based
Streptococcus mutans [1] = experiment: Antibiofilm activity against Streptococcus mutans ATCC 25175 assessed as inhibition of biofilm formation up to 96 ug/mL after 24 hrs by crystal violet staining-based assay; format: functional, organism-based
Streptococcus mutans [2] = experiment: Inhibition of planktonic growth of Streptococcus mutans ATCC 25175 up to 96 ug/mL after 24 hrs relative to control; format: organism-based
Fusobacterium nucleatum = experiment: Antibiofilm activity against Fusobacterium nucleatum ATCC 25586 assessed as inhibition of biofilm formation up to 96 ug/mL after 24 hrs by crystal violet staining based assay; format: functional, organism-based

Row | SMILES | inhibition (Porphyromonas gingivalis) | inhibition (Streptococcus mutans [1]) | growth inhibition (GI) (Streptococcus mutans [2]) | inhibition (Fusobacterium nucleatum)
1 | C[C@@H]1NC(=O)[C@H](Cc2ccccc2)NC1=O | inactive | inactive | Non-Toxic | inactive
2 | CCC(C)[C@@H]1NC(=O)[C@H](COCc2ccccc2)NC1=O (some centres undefined) | inactive | inactive | Non-Toxic | inactive
3 | CC(C)C[C@H]1NC(=O)[C@@H](Cc2ccccc2)NC1=O | inactive | inactive | Non-Toxic | inactive
4 | CC(C)C[C@@H]1NC(=O)[C@H](CC(C)C)NC1=O | inactive | inactive | Non-Toxic | inactive
5 | CC(C)C[C@H]1NC(=O)[C@@H](Cc2ccc(OCc3ccccc3)cc2)NC1=O | inactive | inactive | Non-Toxic | inactive
6 | CC(C)C[C@@H]1NC(=O)[C@H](Cc2ccc(OCc3ccccc3)cc2)NC1=O | inactive | inactive | Non-Toxic | inactive
7 | CC(C)C[C@H]1NC(=O)[C@H](Cc2ccccc2)NC1=O | inactive | inactive | Non-Toxic | inactive
8 | CC(C)C[C@@H]1NC(=O)CNC1=O | inactive | inactive | Non-Toxic | inactive
9 | C[C@H]1NC(=O)[C@@H](Cc2ccc(OCc3ccccc3)cc2)NC1=O | inactive | inactive | Non-Toxic | inactive
10 | O=C(NCCCC[C@@H]1NC(=O)[C@H](CCCCNC(=O)OCc2ccccc2)NC1=O)OCc1ccccc1 | inactive | inactive | Non-Toxic | inactive
11 | CC(C)[C@@H]1NC(=O)[C@H](Cc2ccc(OCc3ccccc3)cc2)NC1=O | inactive | inactive | Non-Toxic | inactive
12 | CC(C)[C@@H]1NC(=O)[C@H](C)NC1=O | inactive | inactive | Non-Toxic | inactive
13 | CC(C)[C@@H]1NC(=O)[C@H](C(C)C)NC1=O | inactive | inactive | Non-Toxic | inactive
14 | CC(C)[C@@H]1NC(=O)[C@H](COCc2ccccc2)NC1=O | inactive | inactive | Non-Toxic | inactive
15 | C[C@H]1NC(=O)[C@@H](Cc2ccccc2)NC1=O | inactive | inactive | Non-Toxic | inactive
16 | C[C@@H]1NC(=O)[C@@H](C)NC1=O | inactive | inactive | Non-Toxic | inactive
17 | O=C1N[C@H](Cc2ccccc2)C(=O)N[C@@H]1COCc1ccccc1 | inactive | inactive | Non-Toxic | inactive
18 | O=C1N[C@H](COCc2ccccc2)C(=O)N[C@@H]1COCc1ccccc1 | inactive | inactive | Non-Toxic | inactive

Row | SMILES | inhibition (Porphyromonas gingivalis) | inhibition (Streptococcus mutans [1]) | growth inhibition (GI) (Streptococcus mutans [2]) | inhibition (Fusobacterium nucleatum)
19 | O=C1CNC(=O)[C@H](Cc2ccccc2)N1 | inactive | inactive | Non-Toxic | inactive
20 | CC(C)C[C@@H]1NC(=O)[C@@H](C(C)C)NC1=O | inactive | inactive | Non-Toxic | inactive
21 | O=C(NCCCC[C@@H]1NC(=O)[C@H](Cc2ccccc2)NC1=O)OCc1ccccc1 | inactive | inactive | Non-Toxic | inactive
22 | O=C1N[C@H](COCc2ccccc2)C(=O)N[C@H]1COCc1ccccc1 | inactive | inactive | Non-Toxic | inactive
23 | O=C1N[C@H](Cc2ccccc2)C(=O)N[C@H]1COCc1ccccc1 | inactive | inactive | Non-Toxic | inactive
24 | CC(C)C[C@@H]1NC(=O)[C@@H](Cc2ccc(OCc3ccccc3)cc2)NC1=O | inactive | inactive | Non-Toxic | inactive
25 | C[C@@H](OCc1ccccc1)[C@@H]1NC(=O)[C@H]([C@@H](C)OCc2ccccc2)NC1=O | inactive | inactive | Non-Toxic | inactive
26 | CC(C)C[C@@H]1NC(=O)[C@@H](CC(C)C)NC1=O | inactive | inactive | Non-Toxic | inactive
27 | N=C(N)N(CCC[C@@H]1NC(=O)[C@H](CCCCNC(=O)OCc2ccccc2)NC1=O)[N+](=O)[O-] | inactive | inactive | Non-Toxic | inactive
28 | CC(C)C[C@H]1NC(=O)[C@@H](C(C)C)NC1=O | inactive | inactive | Non-Toxic | inactive
29 | CC(C)[C@H]1NC(=O)[C@@H](C(C)C)NC1=O | inactive | inactive | Non-Toxic | inactive
30 | C[C@@H]1NC(=O)[C@H](C)NC1=O | inactive | inactive | Non-Toxic | inactive
31 | O=C1[C@@H]2CCCN2C(=O)[C@H]2CCCN12 | inactive | inactive | Non-Toxic | inactive
32 | CC(C)C[C@@H]1NC(=O)[C@H](Cc2ccccc2)NC1=O | inactive | inactive | Non-Toxic | inactive
33 | O=C1N[C@@H](Cc2ccc([N+](=O)[O-])cc2)C(=O)N[C@H]1Cc1ccc([N+](=O)[O-])cc1 | inactive | inactive | Non-Toxic | inactive
34 | CC(C)[C@@H]1NC(=O)[C@H](Cc2ccccc2)NC1=O | inactive | inactive | Non-Toxic | inactive
35 | CCC(C)[C@@H]1NC(=O)[C@H](Cc2ccccc2)NC1=O (some centres undefined) | inactive | inactive | Non-Toxic | inactive
36 | O=C1N[C@@H](Cc2ccc(OCc3ccccc3)cc2)C(=O)N2CCC[C@@H]12 | inactive | inactive | Non-Toxic | inactive
